# Results as given in US8648066B2 (Exelixis, Inc., priority 2009, dated 2014).
# Target: mTOR/GbL/Raptor (mTORC1) (Homo sapiens, UniProt P42345)
# Test: mTOR/GbL/Raptor (mTORC1) ELISA assay
# Format: biochemical
# Conditions: phosphorylation of 4E-BP1; 0.2 nM mTORC1, 10 μM ATP; read-out: IC50 in this assay (mTORC1 ELISA)
# How it was run: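 ELISA read-out: phospho-4E-BP1 captured on Ni-chelate plates and detected with anti-phospho antibody plus HRP-anti-IgG luminescence. The kinase step ran 120 min at ambient temperature with 0.2 nM human mTORC1, 10 µM ATP, 50 nM His-4E-BP1, 10 mM MnCl2, pH 7.2 HEPES.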
row,IC50,SMILES
1,≤ 10 nM,"CNC(=O)c1ccc(-c2ccc3c(c2)CN(c2ncnc(C)c2Cc2ccc(F)cc2)CCO3)cc1 [Example 171, 4-(4-{5-[(4-fluorophenyl)methyl]-6-methylpyrimidin-4-yl}-2,3,4,5-tetrahydro-1,4-benzoxazepin-7-yl)-N-methylbenzamide]"
2,50 to 250 nM,"Cc1ncnc(N2CCOc3ccc(-c4ccc(C(=O)NC5CC5)cc4)cc3C2)c1Cc1ccc(F)cc1 [Example 172, N-cyclopropyl-4-(4-{5-[(4-fluorophenyl)methyl]-6-methylpyrimidin-4-yl}-2,3,4,5-tetrahydro-1,4-benzoxazepin-7-yl)benzamide]"
3,≤ 10 nM,"Cc1ncnc(N2CCOc3ccc(-c4ccc(C(=O)NCC(F)F)cc4)cc3C2)c1Cc1ccc(F)cc1 [Example 174, N-(2,2-difluoroethyl)-4-(4-{5-[(4-fluorophenyl)methyl]-6-methylpyrimidin-4-yl}-2,3,4,5-tetrahydro-1,4-benzoxazepin-7-yl)benzamide]"
4,≤ 10 nM,"COC(=O)Nc1nc2ncc(-c3ccc4c(c3)CN(c3ncnc(C)c3Cc3ccc(F)cc3)CCO4)cc2[nH]1 [Example 175, methyl [6-(4-{5-[(4-fluorophenyl)methyl]-6-methylpyrimidin-4-yl}-2,3,4,5-tetrahydro-1,4-benzoxazepin-7-yl)-1H-imidazo[4,5-b]pyridin-2-yl]carbamate]"
5,≤ 10 nM,"Cc1ncnc(N2CCOc3ccc(-c4cnc5nc(N)[nH]c5c4)cc3C2)c1Cc1ccc(F)cc1 [Example 176, 6-(4-{5-[(4-fluorophenyl)methyl]-6-methylpyrimidin-4-yl}-2,3,4,5-tetrahydro-1,4-benzoxazepin-7-yl)-1H-imidazo[4,5-b]pyridin-2-amine]"
6,≤ 10 nM,"CC1(C)CCc2ncnc(N3CCOc4ccc(-c5cnc6nc(N)[nH]c6c5)cc4C3)c2C1 [Example 177, 6-[4-(6,6-dimethyl-5,6,7,8-tetrahydroquinazolin-4-yl)-2,3,4,5-tetrahydro-1,4-benzoxazepin-7-yl]-1H-imidazo[4,5-b]pyridin-2-amine]"
7,≤ 10 nM,"CCC1CCc2ncnc(N3CCOc4ccc(-c5cnc6nc(N)[nH]c6c5)cc4C3)c2C1 (stereo not drawn) [Example 178, 6-[4-(6-ethyl-5,6,7,8-tetrahydroquinazolin-4-yl)-2,3,4,5-tetrahydro-1,4-benzoxazepin-7-yl]-1H-imidazo[4,5-b]pyridin-2-amine]"
8,10 to 50 nM,"CC1CCc2c(ncnc2N2CCOc3ccc(-c4cnc5nc(N)[nH]c5c4)cc3C2)C1 (stereo not drawn) [Example 179, 6-[4-(7-methyl-5,6,7,8-tetrahydroquinazolin-4-yl)-2,3,4,5-tetrahydro-1,4-benzoxazepin-7-yl]-1H-imidazo[4,5-b]pyridin-2-amine]"
9,10 to 50 nM,"COc1cc2ncnc(N3CCOc4ccc(-c5cnc6nc(N)[nH]c6c5)cc4C3)c2cc1OC [Example 180, 6-{4-[6,7-bis(methyloxy)quinazolin-4-yl]-2,3,4,5-tetrahydro-1,4-benzoxazepin-7-yl}-1H-imidazo[4,5-b]pyridin-2-amine]"
10,≤ 10 nM,"Nc1nc2ncc(-c3ccc4c(c3)CN(c3ncnc5ccc(Br)cc35)CCO4)cc2[nH]1 [Example 181, 6-[4-(6-brromoquinazolin-4-yl)-2,3,4,5-tetrahydro-1,4-benzoxazepin-7-yl]-1H-imidazo[4,5-b]pyridin-2-amine]"
11,10 to 50 nM,"COc1ccc2ncnc(N3CCOc4ccc(-c5cnc6nc(N)[nH]c6c5)cc4C3)c2c1 [Example 182, 6-{4-[6-(methyloxy)quinazolin-4-yl]-2,3,4,5-tetrahydro-1,4-benzoxazepin-7-yl}-1H-imidazo[4,5-b]pyridin-2-amine]"
12,≤ 10 nM,"Nc1nc2ncc(-c3ccc4c(c3)CN(c3ncnc5ccc(I)cc35)CCO4)cc2[nH]1 [Example 183, 6-[4-(6-iodoquinazolin-4-yl)-2,3,4,5-tetrahydro-1,4-benzoxazepin-7-yl]-1H-imidazo[4,5-b]pyridin-2-amine]"
13,250 to 1000 nM,"COc1cc2c(N3CCOc4ccc(-c5cnc6nc(N)[nH]c6c5)cc4C3)ncnc2cc1Br [Example 184, 6-{4-[7-bromo-6-(methyloxy)quinazolin-4-yl]-2,3,4,5-tetrahydro-1,4-benzoxazepin-7-yl}-1H-imidazo[4,5-b]pyridin-2-amine]"
14,10 to 50 nM,"Nc1nc2ncc(-c3ccc4c(c3)CN(c3ncnc5cc(Cl)c(Br)cc35)CCO4)cc2[nH]1 [Example 185, 6-[4-(6-bromo-7-chloroquinazolin-4-yl)-2,3,4,5-tetrahydro-1,4-benzoxazepin-7-yl]-1H-imidazo[4,5-b]pyridin-2-amine]"
15,10 to 50 nM,"Nc1nc2ncc(-c3ccc4c(c3)CN(c3ncnc5ccc(Cl)cc35)CCO4)cc2[nH]1 [Example 186, 6-[4-(6-chloroquinazolin-4-yl)-2,3,4,5-tetrahydro-1,4-benzoxazepin-7-yl]-1H-imidazo[4,5-b]pyridin-2-amine]"
16,10 to 50 nM,"Nc1nc2ncc(-c3ccc4c(c3)CN(c3ncnc5ccc(F)cc35)CCO4)cc2[nH]1 [Example 187, 6-[4-(6-fluoroquinazolin-4-yl)-2,3,4,5-tetrahydro-1,4-benzoxazepin-7-yl]-1H-imidazo[4,5-b]pyridin-2-amine]"
17,50 to 250 nM,"COc1cc2nccc(N3CCOc4ccc(-c5cnc6nc(N)[nH]c6c5)cc4C3)c2cc1OC [Example 188, 6-{4-[6,7-bis(methyloxy)quinolin-4-yl]-2,3,4,5-tetrahydro-1,4-benzoxazepin-7-yl}-1H-imidazo[4,5-b]pyridin-2-amine]"

row,IC50,SMILES
1,≤ 10 nM,"Cc1ncnc(N2CCOc3ccc(-c4ccc5nc(N)[nH]c5c4)cc3C2)c1Cc1ccc(F)cc1 [Example 189, 6-(4-{5-[(4-fluorophenyl)methyl]-6-methylpyrimidin-4-yl}-2,3,4,5-tetrahydro-1,4-benzoxazepin-7-yl)-1H-benzimidazol-2-amine]"
2,250 to 1000 nM,"Nc1nc2ccc(-c3ccc4c(c3)CN(c3ccnc5ccccc35)CCO4)cc2[nH]1 [Example 190, 6-(4-quinolin-4-yl-2,3,4,5-tetrahydro-1,4-benzoxazepin-7-yl)-1H-benzimidazol-2-amine]"
3,250 to 1000 nM,"COc1cc2nccc(N3CCOc4ccc(-c5ccc6nc(N)[nH]c6c5)cc4C3)c2cc1OC [Example 191, 6-{4-[6,7-bis(methyloxy)quinolin-4-yl]-2,3,4,5-tetrahydro-1,4-benzoxazepin-7-yl}-1H-benzimidazol-2-amine]"
4,≤ 10 nM,"CCNc1nc2ccc(-c3ccc4c(c3)CN(c3ncnc(C)c3Cc3ccc(F)cc3)CCO4)cc2[nH]1 [Example 192, N-ethyl-6-(4-{5-[(4-fluorophenyl)methyl]-6-methylpyrimidin-4-yl}-2,3,4,5-tetrahydro-1,4-benzoxazepin-7-yl)-1H-benzimidazol-2-amine]"
5,≤ 10 nM,"Cc1ncnc(N2CCOc3ccc(-c4ccc5[nH]c(NCCF)nc5c4)cc3C2)c1Cc1ccc(F)cc1 [Example 193, N-(2-fluoroethyl)-5-(4-{5-[(4-fluorophenyl)methyl]-6-methylpyrimidin-4-yl}-2,3,4,5-tetrahydro-1,4-benzoxazepin-7-yl)-1H-benzimidazol-2-amine]"
6,10 to 50 nM,"Cc1ncnc(N2CCOc3ccc(-c4ccc5nc(N)[nH]c5n4)cc3C2)c1Cc1ccc(F)cc1 [Example 194, 5-(4-{5-[(4-fluorophenyl)methyl]-6-methylpyrimidin-4-yl}-2,3,4,5-tetrahydro-1,4-benzoxazepin-7-yl)-3H-imidazo[4,5-b]pyridin-2-amine]"
7,1000 to 2000 nM,"CN(C)c1nc2ccc(-c3ccc4c(c3)CN(c3ccnc5ccccc35)CCO4)cc2[nH]1 [Example 195, N,N-dimethyl-6-(4-quinolin-4-yl-2,3,4,5-tetrahydro-1,4-benzoxazepin-7-yl)-1H-benzimidazol-2-amine]"
8,≥ 2000 nM,"COCc1nc2ccc(-c3ccc4c(c3)CN(c3ccnc5ccccc35)CCO4)cc2[nH]1 [Example 196, 7-{2-[(methyloxy)methyl]-1H-benzimidazol-6-yl}-4-quinolin-4-yl-2,3,4,5-tetrahydro-1,4-benzoxazepine]"
9,1000 to 2000 nM,"CCCc1nc2ccc(-c3ccc4c(c3)CN(c3ccnc5ccccc35)CCO4)cc2[nH]1 [Example 197, 7-(2-propyl-1H-benzimidazol-6-yl)-4-quinolin-4-yl-2,3,4,5-tetrahydro-1,4-benzoxazepine]"
10,250 to 1000 nM,"c1ccc2c(N3CCOc4ccc(-c5ccc6nc(C7CC7)[nH]c6c5)cc4C3)ccnc2c1 [Example 199, 7-(2-cyclopropyl-1H-benzimidazol-6-yl)-4-quinolin-4-yl-2,3,4,5-tetrahydro-1,4-benzoxazepine]"
11,1000 to 2000 nM,"c1ccc2c(N3CCOc4ccc(-c5ccc6nc(C7CCCCC7)[nH]c6c5)cc4C3)ccnc2c1 [Example 200, 7-(2-cyclohexyl-1H-benzimidazol-6-yl)-4-quinolin-4-yl-2,3,4,5-tetrahydro-1,4-benzoxazepine]"
12,1000 to 2000 nM,"c1ccc2c(N3CCOc4ccc(-c5ccc6nc(C7CNC7)[nH]c6c5)cc4C3)ccnc2c1 [Example 201, 7-(2-azetidin-3-yl-1H-benzimidazol-6-yl)-4-quinolin-4-yl-2,3,4,5-tetrahydro-1H-benzoxazepine]"
13,250 to 1000 nM,"c1ccc2c(N3CCOc4ccc(-c5ccc6nc(C7CCCCN7)[nH]c6c5)cc4C3)ccnc2c1 (stereo not drawn) [Example 202, 7-(2-piperidin-2-yl-1H-benzimidazol-6-yl)-4-quinolin-4-yl-2,3,4,5-tetrahydro-1,4-benzoxazepine]"
14,1000 to 2000 nM,"CC(C)c1nc2ccc(-c3ccc4c(c3)CN(c3ccnc5ccccc35)CCO4)cc2[nH]1 [Example 203, 7-[2-(1-methylethyl)-1H-benzimidazol-6-yl]-4-quinolin-4-yl-2,3,4,5-tetrahydro-1,4-benzoxazepine]"
15,50 to 250 nM,"CSc1nc2ccc(-c3ccc4c(c3)CN(c3ccnc5ccccc35)CCO4)cc2[nH]1 [Example 207, 7-[2-(methylthio)-1H-benzimidazol-6-yl]-4-quinolin-4-yl-2,3,4,5-tetrahydro-1,4-benzoxazepine]"
16,50 to 250 nM,"CCNc1nc2ccc(-c3ccc4c(c3)CN(c3ccnc5ccccc35)CCO4)cc2[nH]1 [Example 208, N-ethyl-6-(4-quinolin-4-yl-2,3,4,5-tetrahydro-1,4-benzoxazepin-7-yl)-1H-benzimidazol-2-amine]"
